Source: patent US20260274910A1, “SINGLE FUSION PROTEIN AND PHARMACEUTICAL COMPOSITION” (MEDI&GENE INC., priority 2023, published 2026)

What was measured:
MDA-MB-231 cell line = assay: Reactive oxygen generation (DCF-FA) in breast cancer cells; assay type: cell-based; conditions: 1 μM, 24 hours; compared with Control and SEQ ID NO: 5
Experimental: In addition, in order to examine generation of reactive oxygen that plays an important role in cancer cell death, each test substance was treated to the MDA-MB-231 cell line at a concentration of 1 μM (Control: PBS) for 24 hours. Then, the cells were stained with DCF-FA and their fluorescence values were observed and compared at 485/535 nm.

[1] = tested on: SH-SY5Y dopaminergic neuron cell line; assay: Reactive oxygen in neuron cells under rotenone; assay type: cell-based; conditions: 1 µM rotenone + 100 nM test substance, 24 hours; compared with rotenone alone
Experimental: (§1) The SH-SY5Y dopaminergic neuron cell line was treated with 1 µM of a toxic substance, rotenone and 100 nM of each test substance simultaneously. After 24 hours, the MTT cell viability or the effect of reducing reactive oxygen was observed.

cAMP (cyclic AMP) = assay: cAMP level (hTRF) in undifferentiated 3T3-L1 cells; assay type: cell-based, mouse; conditions: undifferentiated 3T3-L1, 100 nM with 0.5 mM IBMX, 30 minutes; compared with Control and SEQ ID NO: 5
Experimental: (§2) To observe the functionality of the fusion proteins related to lipid metabolism, the 3T3-L1 mouse pre-adipocyte cell line was used as the cell line itself (undifferentiated) or by differentiating into adipocytes. Differentiation into the adipocytes was performed by inducing primary differentiation for the 3T3-L1 cells in a medium containing DMEM, 10% FBS, 10 μg/ml insulin, 0.5 mM IBMX (3-Isobutyl-1-methylxanthine), and 1 μM dexamethasone for 2 days, and inducing secondary differentiation with a medium containing DMEM, 10% FBS, and 10 μg/ml insulin for the remaining 4 days. The adipocytes in which differentiation was finally completed were treated with the test substances at a concentration of 100 nM for 30 hours (Control: PBS) and then used for each test.
Next, changes in cAMP (cyclic AMP), a signaling mediator contributing to lipolysis and energy metabolism were evaluated in the undifferentiated adipocytes. The undifferentiated cells were treated with the test substances at a concentration of 100 nM (Control: PBS) with 0.5 mM IBMX for 30 minutes. Thereafter, the level of cAMP was evaluated by the hTRF (Homogeneous Time Resolved Fluorescence) method (using CAMP Gs dynamic kit from Cisbio). As a result of the measurement, it was confirmed that the level of cAMP was higher in the groups treated with the fusion proteins (SEQ ID NOs: 1, 2, 3, 7, 13, 14, 15) and shortened sequences (sequences 9, 10, 11) compared with the Control and His tag-wild-type substance (1-81) (SEQ ID NO: 5) (FIG. 7).

[2] = tested on: MDA-MB-231 triple-negative breast cancer cell line; assay: MTT cell viability in breast cancer cells; assay type: cell-based; conditions: 1 μM, 48 hours; compared with Control (PBS), SEQ ID NO: 4 and SEQ ID NO: 5
Experimental: Next, the test substances, the fusion proteins (SEQ ID NO: 1, 2, 3, 7, 14, 15) and shortened sequences (SEQ ID NOs: 9, 10, 11, 12) were treated to MDA-MB-231 triple-negative breast cancer cell line at a concentration of 1 μM (Control: PBS) for 48 hours. Thereafter, the cells were washed with PBS once, and the cells were suspended in serum-free buffer. The MTT (3-[4,5-dimethylthiazol-2-yl]-2,5-diphenyltetrazolium bromide) substance was added thereto at 0.5 mg/ml and incubated at 37° C. for 2 hours. Then, they were washed with PBS once, and the cells were lysed with DMSO for 15 minutes. The solution was transferred to a new plate and the absorbance was measured at 590 nm using a microplate reader.

[3] = tested on: SH-SY5Y dopaminergic neuron cell line; assay: MTT cell viability of neuron cells under rotenone; assay type: cell-based; conditions: 1 µM rotenone + 100 nM test substance, 24 hours; compared with rotenone alone
Experimental: as §1

ATP5B protein = ATP5B protein (Homo sapiens, UniProt P06576); assay: SPR binding ability test; conditions: ATP5B on CM5 chip, flow rate 50 μl/min, relative to control shortened sequence (SEQ ID NO: 12)
Sequence of ATP5B protein (P06576 48-529, species assumed): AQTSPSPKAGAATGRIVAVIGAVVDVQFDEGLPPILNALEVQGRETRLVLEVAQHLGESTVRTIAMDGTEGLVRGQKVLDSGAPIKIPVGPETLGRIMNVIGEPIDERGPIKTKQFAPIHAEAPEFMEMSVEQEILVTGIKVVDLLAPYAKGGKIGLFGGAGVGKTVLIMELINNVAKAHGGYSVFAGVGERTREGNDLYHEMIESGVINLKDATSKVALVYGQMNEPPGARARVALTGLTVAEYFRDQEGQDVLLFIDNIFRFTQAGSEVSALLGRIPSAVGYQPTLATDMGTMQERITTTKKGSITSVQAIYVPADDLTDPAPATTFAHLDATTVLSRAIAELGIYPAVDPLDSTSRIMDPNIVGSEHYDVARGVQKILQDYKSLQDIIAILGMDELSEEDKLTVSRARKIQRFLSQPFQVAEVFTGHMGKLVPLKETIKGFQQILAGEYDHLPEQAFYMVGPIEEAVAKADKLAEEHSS
Experimental: In order to evaluate substitutable residues within a sequence, an SPR (surface plasma resonance) test was conducted. Specifically, the ATP5B protein was conjugated to a CM5 chip by amine-conjugation, and then the contact of each test substance was observed under the condition of a flow rate of 50 μl/min, and the refractive index was measured. Thereafter, by converting each binding unit, the binding ability was compared and evaluated. […] A decrease of 10% or more in binding ability was considered to indicate a negative effect of the substitution.

[4] = tested on: follicular cells (dermal papilla cells); assay: Follicular cell proliferation by MTT assay; assay type: cell-based; conditions: 100 nM, 24 hours; compared with Control (PBS)
Experimental: Whether the test substances of the present invention has effects on preventing hair loss or promoting hair growth was evaluated as follows. Specifically, it was observed whether they have efficacy of improving loss of follicular cells in scalp tissue which is a cause of hair loss, or hair growth due to an increase in hair follicles, by using dermal papilla cells and evaluating cell proliferation of follicular cells.
The follicular cells were treated with each test substance 100 nM (control: PBS) for 24 hours, and the degree of cell proliferation was evaluated by MTT assay.

[5] = tested on: sciatic nerve transection mouse model; assay: Sciatic nerve transection muscle atrophy model; assay type: in vivo, C57BL/6 male mice; conditions: versus control
Experimental: The effects of the test substances on muscle diseases accompanied by muscle loss were evaluated using a sciatic nerve transection mouse model.
In the sciatic nerve transection mouse model, muscle atrophy was induced as follows. The thigh muscles of C57BL/6 male mice were transversely incised to expose sciatic nerves, and then the sciatic nerves were transected to weaken the nerves in the muscle tissue and induce muscle atrophy. The incised site was sutured, and a recovery period of one week was provided after the surgery.
To each mouse after the recovery period, the test substance (Control-PBS; and fusion protein) assigned to each group was subcutaneously injected at a concentration of 5.0 mg/kg 6 times a week for 9 weeks (Control: n=8, No. 13: n=9, No. 14: n=9, No. 15: n=8). The effects of improving muscle loss were measured with an X-ray body composition analyzer (DXA assay) in the fourth week of test substance administration, and the effects of improving muscle function was compared by measuring grip strength.

[6] = tested on: UCP-1 (uncoupling protein 1); assay: UCP-1 expression (RT-PCR) in differentiated 3T3-L1 adipocytes; assay type: cell-based, mouse; conditions: 100 nM, 30 hours
Experimental: as §2
UCP-1 (uncoupling protein 1) is a representative biomarker related to thermogenesis, indicating browning and energy metabolism activation of adipocytes. In order to observe changes in expression of UCP-1 mRNA and protein by treatment of the fusion proteins, mRNA and protein were isolated from the cells treated with each test substance and RT-PCR and western blot were performed.

3T3-L1 adipocytes = assay: Lipid droplet analysis (BODIPY 493/503, confocal) in 3T3-L1 adipocytes; assay type: cell-based, mouse; conditions: differentiated 3T3-L1 adipocytes, 100 nM, 30 hours
Experimental: as §2
In addition, lipid droplets of adipocytes were stained with BODIPY 493/503 dye sample, and then confocal image scanning was performed to analyze the size and diameter of the lipid droplets.

[7] = Half-life in mice, NIR dye-conjugated substance, plasma fluorescence
Experimental: For evaluation, ten-week-old C57BL/6 mice were used, and the mice were reared in a specialized animal facility which provided a normal diet and a 12/12 hour night/day cycle and then used for experimentation.
The synthetic peptide (SEQ ID NO: 8) and fusion protein (SEQ ID NO: 13) were each injected into the mice at a concentration of 2.5 mg/kg, and blood was collected at 0, 0.5, 2, 4, 24 hours after injection. The collected blood was centrifuged and the obtained plasma was analyzed. At this time, in order to perform effective quantification of the substances, each substance was conjugated with Dylight 680 Near-Infrared dye (NIR) in advance prior to injection, and the finally collected blood samples were examined by observing fluorescent signals with a SpectraMax i3 microplate reader device.

plasma proteins = assay: Plasma protein binding test (PPB); assay type: in vitro ADME, mice; conditions: mouse plasma, 5 uM, 37° C., 4 hours, 100 kD filter, western blot
Experimental: Such an increase in half-life was further confirmed by measuring plasma protein binding rates (Plasma protein binding test, PPB). […] Each of the plasma of the mice and the fusion protein (SEQ ID NO: 13), and or His tag-wild-type substance (1-81) (SEQ ID NO: 5) was incubated at a concentration of 5 uM at 37° C. for 4 hours. After that, they were centrifuged with a 100 kD filter to obtain fractions of the substance bound to the plasma proteins or fractions of the unbound substance. Each of the obtained fractions was evaluated by western blot.

| Binding (%) (ATP5B protein) | Substance | Reactive oxygen generation (MDA-MB-231 cell line) | Generation of reactive oxygen [1] | Level of cAMP (cAMP (cyclic AMP)) | Cell viability (MTT) [2] | Cell viability (MTT) [3] | further results |
| --- | --- | --- | --- | --- | --- | --- | --- |
|  | SEQ ID NO: 9: Synthetic peptide: Shortened substance (1-60) (GSDQSENVDRGAGSIREAGGAFGKREQAEEERYFRAQSREQLAALKKHHEEEIVHHKKEI; listed as Homo sapiens) | generated higher | significantly inhibited | higher | significantly low | significantly increased |  |
| 100.0% | SEQ ID NO: 12: Synthetic peptide: Shortened substance (8-35) VDRGAGSIREAGGAFGKREQAEEERYFR (listed as Homo sapiens) |  |  |  | significantly low |  |  |
|  | SEQ ID NO: 11: Synthetic peptide: Shortened amino acid modified substance (10-49; H49K mutation introduced) RGAGSIREAGGAFGKREQAEEERYFRAQSREQLAALKKHK | generated higher | significantly inhibited | higher | significantly low | significantly increased |  |
|  | SEQ ID NO: 10: Synthetic peptide: Shortened substance (1-47) GSDQSENVDRGAGSIREAGGAFGKREQAEEERYFRAQSREQLAALKK (listed as Homo sapiens) | generated higher | significantly inhibited | higher | significantly low | significantly increased |  |
|  | SEQ ID NO: 13: Recombinant protein: Wild-type substance (1-81)-Shortened linker-Fc fusion | generated higher |  | higher |  |  | Cell viability (MTT, cell proliferation) [4]: significantly increased; Grip strength ([5]; 5.0 mg/kg subcutaneous 6 times a week for 9 weeks): higher performance; Muscle mass (DXA assay) ([5]; 5.0 mg/kg subcutaneous 6 times a week, fourth week): significantly increased; mRNA level of UCP-1 [6]: significantly increased; Lipid droplet size (3T3-L1 adipocytes): reduced at a significant level; Maximum lipid droplet diameter per cell (3T3-L1 adipocytes): reduced at a significant level; Total lipid droplet area (3T3-L1 adipocytes): reduced at a significant level; Half-life increase of fusion protein versus synthetic peptide (SEQ ID NO: 8) ([7]; 2.5 mg/kg): approximately 11.8 times; Half-life ([7]; injected at 2.5 mg/kg, Dylight 680 NIR-conjugated, plasma at 0, 0.5, 2, 4, 24 hours): 18.9 h; Binding rate with the plasma proteins (plasma proteins): 74% |
| 92.1% | SEQ ID NO: 38: Shortened substance (8-35) amino acid Ala substituted (34) VDRGAGSIREAGGAFGKREQAEEERYAR |  |  |  |  |  |  |
| 89.5% | SEQ ID NO: 32: Shortened substance (8-35) amino acid Ala substituted (27) VDRGAGSIREAGGAFGKREAAEEERYFR |  |  |  |  |  |  |
